Consider three compounds from patent US20100159496A1, “EVALUATION METHOD FOR PHOTOSYNTHESIS SAMPLE, EVALUATION SYSTEM FOR PHOTOSYNTHESIS SAMPLE, AND EVALUATION PROGRAM FOR PHOTOSYNTHESIS SAMPLE” (HAMAMATSU PHOTONICS K.K., priority 2006, published 2010).

This test has as its system green algae. Put plainly: Delayed luminescence of green algae in different redox states (first/second excitation light, waiting time), integration values. It is filed as cell-based, Pseudokircheneriella subcapitata. Particulars: for percentage (% oQ) of the oxidized plastoquinone: DBMIB 322 μg/L (FIG. 43). The text has this:
In determining the relationship between the waiting time and the temporal variation of delayed luminescence, first, white light of 500 μmol·m−2·s−1 was illuminated for 10 seconds onto the measurement sample as the first excitation light for saturating photosynthetic electron transport (first illumination condition). Thereafter, a step of not illuminating light onto the measurement sample (referred to hereinafter as “waiting”) was provided and then red light of 50 μmol·m−2·s−1 was illuminated for 2 seconds as the second excitation light. The second excitation light can make delayed luminescence be emitted while hardly changing the redox state of the photosynthetic sample. Such a process is performed repeatedly with the waiting being changed to 0, 2, 10, 30, and 60 seconds. In addition, measurement is also made for a case where the illumination of the first excitation light and waiting are not executed and just the illumination of the second excitation light is performed, that is, for the case where the photosynthetic electron transport is not saturated.
In the following, a case of computing an integration value for each of an integration range (measurement time period) of 0.1 to 0.5 seconds of time after excitation, an integration range of 0.6 to 10 seconds after excitation, and an integration range of 10.1 seconds to 50 seconds after excitation shall be described. Setting of the integration ranges is not restricted to the above. The number of integration ranges may any number as long as it is no less than 1. In a case where a plurality of integration ranges are set up, the respective integration ranges may be made equal or not equal in time width. Furthermore, the integration ranges may not only be mutually set apart by a predetermined time as in the present embodiment but integration ranges may be set so as to be adjacent each other (for example, an integration range of 0.1 to 0.5 seconds of time after excitation and an integration range of 0.5 seconds to 10 seconds of time after excitation may be set up) and integration ranges may be set so as to overlap with each other (for example, an integration range of 0.1 to 0.5 seconds of time after excitation and an integration range of 0.4 seconds to 10 seconds of time after excitation may be set up).
In each graph of FIG. 29, the abscissa expresses the measurement condition and the ordinate expresses the integration value (counts) of the delayed luminescence intensity. In the following, the integration value in the integration range of 0.1 to 0.5 seconds of time after excitation, the integration value in the integration range of 0.6 to 10 seconds after excitation, and the integration value in the integration range of 10.1 seconds to 50 seconds after excitation shall be referred to respectively as integration value 1, integration value 2, and integration value 3. FIGS. 29A, 29B, and 29C are graphs respectively of the integration value 1, integration value 2, and integration value 3.
First, a method for computing an evaluation value for evaluating the electron accumulation state of the PSII of the photosynthetic sample shall be described. As one such type of evaluation value, there is, for example, a PSII electron accumulation change (en), which indicates how the electron accumulation in the PSII has changed. This value ell can be determined as: (integration value 1 of the evaluation sample)/(integration value 1 of the standard sample)×100. The PSII electron accumulation change (eII) can be computed for the respective conditions of non-saturation, 0-second waiting time, 10-second waiting time, and 60-second waiting time.
As mentioned above, the transient increase of the integration value 1 in the 0-second waiting time reflects increase of the electron accumulation in the PSII due to the takeout of electrons from the PSII becoming rate-limiting. […]

The mark [1] stands for this setting: all conditions (non-saturation, 0-, 10-, 60-second waiting time), DCMU 12 ug/L, Ant-A 0.55 mg/L.

As for `CCCCCC[C@H]1C(=O)O[C@H](C)[C@H](NC(=O)c2cccc(NC=O)c2O)C(=O)O[C@@H](C)[C@@H]1OC(=O)CC(C)C` [Ant-A, Antimycin A], the “integration value 1 (0.1 to 0.5 seconds after excitation)” value (10-second waiting time, Ant-A 0.55 mg/L) is “increased in the same manner as in the 0-second waiting time case”. For the same compound, the “cyclic electron transport (cI) from the PSI” value (10-second waiting time, Ant-A 0.55 mg/L (FIG. 44)) is reported as −12. Under setting [1], the “integration value 2 (0.6 to 10 seconds after excitation) compared with standard sample” value is recorded as “less than those of the standard sample” and the “integration value 3 (10.1 to 50 seconds after excitation) compared with standard sample” value is given as “less than those of the standard sample”. Besides, under “non-saturation case, Ant-A 0.55 mg/L, integration value 3 of evaluation sample/standard sample×100 (FIG. 44)”, the “PSI electron accumulation change (eI)” value is recorded as 89. The “integration value 1 (0.1 to 0.5 seconds after excitation) compared with standard sample” value (non-saturation, 0-second and 60-second waiting time, Ant-A 0.55 mg/L) is given as “a large difference was not seen”.

For the compound `CC1=C(Br)C(=O)C(C(C)C)=C(Br)C1=O` [DBMIB, 2,5-dibromo-6-isopropyl-3-methyl-1,4-benzoquinone], the “integration value 2 (0.6 to 10 seconds after excitation) compared with standard sample” value (0-second waiting time, DBMIB 322 μg/L) is recorded as “a large difference is not seen”; the “integration value 2 (0.6 to 10 seconds after excitation) compared with standard sample” value (non-saturation, 10-second and 60-second waiting time, DBMIB 322 μg/L) was “lower than that of the standard sample”. Further, the “percentage (% oQ) of the oxidized plastoquinone” value (10-second waiting time) is 4 and the “percentage (% oQ) of the oxidized plastoquinone” value (60-second waiting time) is on record as 22. In addition, the “increase (increment) of integration value 3 at the 10-second waiting time compared with standard sample” value (10-second waiting time, DBMIB 322 μg/L, Ant-A 0.55 mg/L) is reported as “lower than that of the standard sample”. For the same compound, for the setting “DBMIB 322 μg/L, sQ of evaluation sample/sQ of standard sample (FIG. 43)”, the “change (vQ) of redox reaction magnitude sQ” value is on record as 30. The “integration value 1 (0.1 to 0.5 seconds after excitation) compared with standard sample” value (all conditions, DBMIB 322 μg/L) is reported as “greater than those of the standard sample”. In addition, under “non-saturation, 0-second and 60-second waiting time, DBMIB 322 μg/L”, the “integration value 3 (10.1 to 50 seconds after excitation) compared with standard sample” value is reported as “a large difference was not seen”.

With `CN(C)C(=O)Nc1ccc(Cl)c(Cl)c1` [DCMU, 3-(3,4-dichlorophenyl)-1,1-dimethyl-urea], the “integration value 1 (0.1 to 0.5 seconds after excitation) compared with standard sample” value (0-second waiting time, DCMU 12 ug/L) was “a significant difference was not seen”. Also, where the note is “DCMU 12 ug/L, tII of evaluation sample/tII of standard sample×100 (FIG. 42)”, the “PSII electron takeout change (vII)” value is reported as “negative”. In addition, under setting [1], the “integration value 2 (0.6 to 10 seconds after excitation) compared with standard sample” value was “less than those of the standard sample” and the “integration value 3 (10.1 to 50 seconds after excitation) compared with standard sample” value is recorded as “less than those of the standard sample”. Further, the “PSII electron accumulation change (eII)” value (non-saturation state, DCMU 12 ug/L, integration value 1 of evaluation sample/standard sample×100 (FIG. 42)) is listed as 188. In addition, the “integration value 1 (0.1 to 0.5 seconds after excitation) compared with standard sample” value (non-saturation, 10-second and 60-second waiting time, DCMU 12 ug/L) is given as “nearly twice the values of the standard sample”.
